Experimental findings from patent publication US20150202186A1, “CYSTATHIONINE-(gamma)-LYASE (CSE) INHIBITORS FOR TREATING PAIN” (SOVA PHARMACEUTICALS, INC., priority 2014, published 2015) are described below.

The experiment has as its target recombinant CSE (cystathionine-γ-lyase) (UniProt P32929). The experiment in a line: CSE In Vitro Assay.
With `CN(N)c1nnn(C)n1` [Compound 38], the IC50 was over 100 µM.
The result for `COCCN(N)c1nnn[nH]1` [Compound 15] reads 25 to 100 µM.
As for `CCN(N)c1nnn[nH]1` [Compound 13], the IC50 is under 25 µM.
